Results published in the supplement of paper PMC12533247.

Legend:
[1] = tested on: HSV-1 K26-GFP infected 3D skin equivalent; test: % activity on HSV-1 GFP signal (0 = infected DMSO control, -100 = uninfected control); higher = higher signal (negative = inhibition / toxicity); settings: time (h post infection): 48
Description: (§1)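 Triplicate dose-response (0.04 to 10 uM) of 11 top compounds in 3D bioprinted skin equivalents (submerged and ALI models) infected with GFP-HSV-1 K26 at MOI 0.1 and fixed at 48 hpi. GFP (virus) and tdTomato (fibroblast viability) signals are normalised to per-plate controls.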

[2] = tested on: HSV-1 K26-GFP infected primary human skin cells; test: % change of HSV-1 GFP signal vs untreated infected cells; higher = less antiviral inhibition; settings: cell type: primary dermal fibroblasts, time (h post infection): 48
Description: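 2D primary donor-derived dermal fibroblasts infected with GFP-HSV-1 K26 at MOI 1, treated 1 h later with compound dilutions and read at 48 hpi on IncuCyte. GFP integrated intensity is normalised to mock-infected and untreated infected wells (% change; -100 = full inhibition).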

[3] = tested on: HSV-1 K26-GFP infected 3D skin equivalent; test: % change of tdTomato fibroblast signal relative to infected DMSO control; higher = higher signal (negative = inhibition / toxicity); settings: time (h post infection): 48
Description: as §1

[4] = tested on: primary dermal fibroblasts; test: % change in live cells vs DMSO control; higher = less cytotoxic; settings: time (h post treatment): 48
Description: (§2)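 Cytotoxicity in uninfected 2D primary donor keratinocytes (20 h post treatment) and fibroblasts (48 h post treatment), measured with NucSpot live/dead dyes on IncuCyte. Live cells are normalised to the 0.2% DMSO control and shown as % change. Three biological replicates for each of donors 3, 4 and 5.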

primary keratinocytes = test: as above; settings: time (h post treatment): 20
Description: as §2

O=C(Nc1ccc([N+](=O)[O-])cc1Cl)c1cc(Cl)ccc1O [Niclosamide]
Settings	% activity on HSV-1 GFP signal [%]	% change in live cells [%]	% change of HSV-1 GFP signal [%]	% change of tdTomato fibroblast signal [%]
[1], 0.041152 µM, model: ALI	-0.742	–	–	–
[1], 0.041152 µM, model: submerged	-3.85	–	–	–
[1], 0.123457 µM, model: ALI	-58.6	–	–	–
[1], 0.123457 µM, model: submerged	-3.15	–	–	–
[1], 0.37037 µM, model: ALI	-102	–	–	–
[1], 0.37037 µM, model: submerged	-59.6	–	–	–
[1], 1.111111 µM, model: ALI	-99.3	–	–	–
[1], 1.111111 µM, model: submerged	-88.3	–	–	–
[1], 3.33333 µM, model: ALI	-103	–	–	–
[1], 3.33333 µM, model: submerged	-92.9	–	–	–
[1], 10 µM, model: ALI	-98.7	–	–	–
[1], 10 µM, model: submerged	-97.1	–	–	–
[2], 0.003 µM, donor: 3	–	–	15.6	–
[2], 0.003 µM, donor: 4	–	–	-6.77	–
[2], 0.0091 µM, donor: 3	–	–	8.69	–
[2], 0.0091 µM, donor: 4	–	–	-8.38	–
[2], 0.0274 µM, donor: 3	–	–	9.83	–
[2], 0.0274 µM, donor: 4	–	–	-13.9	–
[2], 0.0823 µM, donor: 3	–	–	-4.14	–
[2], 0.0823 µM, donor: 4	–	–	-18.7	–
[2], 0.2469 µM, donor: 3	–	–	-45.2	–
[2], 0.2469 µM, donor: 4	–	–	-48.5	–
[2], 0.7407 µM, donor: 3	–	–	-76.3	–
[2], 0.7407 µM, donor: 4	–	–	-63.1	–
[2], 2.2222 µM, donor: 3	–	–	-89.3	–
[2], 2.2222 µM, donor: 4	–	–	-95.5	–
[2], 6.6667 µM, donor: 3	–	–	-99.57	–
[2], 6.6667 µM, donor: 4	–	–	-99.828	–
[2], 20 µM, donor: 3	–	–	-100.1	–
[2], 20 µM, donor: 4	–	–	-99.921	–
[2], 60 µM, donor: 3	–	–	-100.1	–
[2], 60 µM, donor: 4	–	–	-99.98	–
[3], 0.041152 µM, model: ALI	–	–	–	8.37
[3], 0.041152 µM, model: submerged	–	–	–	-8.01
[3], 0.123457 µM, model: ALI	–	–	–	0.996
[3], 0.123457 µM, model: submerged	–	–	–	-14.3
[3], 0.37037 µM, model: ALI	–	–	–	-9.97
[3], 0.37037 µM, model: submerged	–	–	–	-34
[3], 1.111111 µM, model: ALI	–	–	–	-7.62
[3], 1.111111 µM, model: submerged	–	–	–	-44.6
[3], 3.33333 µM, model: ALI	–	–	–	-10.3
[3], 3.33333 µM, model: submerged	–	–	–	-44.5
[3], 10 µM, model: ALI	–	–	–	-8.58
[3], 10 µM, model: submerged	–	–	–	-47.05
[4], 0.082305 µM, donor: 3	–	-18.7	–	–
[4], 0.082305 µM, donor: 4	–	3	–	–
[4], 0.082305 µM, donor: 5	–	5	–	–
[4], 0.246914 µM, donor: 3	–	-17	–	–
[4], 0.246914 µM, donor: 4	–	2.67	–	–
[4], 0.246914 µM, donor: 5	–	1.67	–	–
[4], 0.740741 µM, donor: 3	–	-16	–	–
[4], 0.740741 µM, donor: 4	–	-0.333	–	–
[4], 0.740741 µM, donor: 5	–	-1	–	–
[4], 2.22222 µM, donor: 3	–	-24.7	–	–
[4], 2.22222 µM, donor: 4	–	-2	–	–
[4], 2.22222 µM, donor: 5	–	-2.67	–	–
[4], 6.66667 µM, donor: 3	–	-35	–	–
[4], 6.66667 µM, donor: 4	–	-9	–	–
[4], 6.66667 µM, donor: 5	–	-26	–	–
[4], 20 µM, donor: 3	–	-49.7	–	–
[4], 20 µM, donor: 4	–	-41.7	–	–
[4], 20 µM, donor: 5	–	-63	–	–
[4], 60 µM, donor: 3	–	-56	–	–
[4], 60 µM, donor: 4	–	-38	–	–
[4], 60 µM, donor: 5	–	-74.33	–	–
primary keratinocytes, 0.082305 µM, donor: 3	–	-8	–	–
primary keratinocytes, 0.082305 µM, donor: 4	–	-13	–	–
primary keratinocytes, 0.082305 µM, donor: 5	–	-11.7	–	–
primary keratinocytes, 0.246914 µM, donor: 3	–	-11.7	–	–
primary keratinocytes, 0.246914 µM, donor: 4	–	-20.7	–	–
primary keratinocytes, 0.246914 µM, donor: 5	–	-11.3	–	–
primary keratinocytes, 0.740741 µM, donor: 3	–	-30	–	–
primary keratinocytes, 0.740741 µM, donor: 4	–	-20.7	–	–
primary keratinocytes, 0.740741 µM, donor: 5	–	-8	–	–
primary keratinocytes, 2.22222 µM, donor: 3	–	-14.3	–	–
primary keratinocytes, 2.22222 µM, donor: 4	–	-15.3	–	–
primary keratinocytes, 2.22222 µM, donor: 5	–	-13.3	–	–
primary keratinocytes, 6.66667 µM, donor: 3	–	-23	–	–
primary keratinocytes, 6.66667 µM, donor: 4	–	-13	–	–
primary keratinocytes, 6.66667 µM, donor: 5	–	-9	–	–
primary keratinocytes, 20 µM, donor: 3	–	-61.7	–	–
primary keratinocytes, 20 µM, donor: 4	–	-25.7	–	–
primary keratinocytes, 20 µM, donor: 5	–	-26.7	–	–
primary keratinocytes, 60 µM, donor: 3	–	-68	–	–
primary keratinocytes, 60 µM, donor: 4	–	-69.7	–	–
primary keratinocytes, 60 µM, donor: 5	–	-54.7	–	–
